Experimental data reported in US20060252766A1, “Methods using a combination of 3-heteroaryl-2-indolinone and a cyclooxygenase-2 inhibitor for the treatment of neoplasia” (PFIZER INC, priority 2002, published 2006).

Legend:
FLK-1 receptor = molecular target: T1, FLK-1 receptor (Mus musculus, UniProt P35918); assay: FLK-1 ELISA in FLK-1/NIH3T3 cells; format: cell-based
T1 construct: expressed in transfected cells; host or cells: NIH3T3 C7#3 cells
Experimental: An ELISA assay was conducted to measure the kinase activity of the FLK-1 receptor and more specifically, the inhibition or activation of protein tyrosine kinase activity on the FLK-1 receptor. Specifically, the following assay was conducted to measure kinase activity of the FLK-1 receptor in FLK-1/NIH3T3 cells.
Coat Corning 96-well elisa plates with 1.0 μg per well Cappel Anti-rabbit IgG antibody in 0.1M Na2 CO3 pH 9.6. Bring final volume to 150 μl per well. Coat plates overnight at 4° C. Plates can be kept up to two weeks when stored at 4° C. • 2. Grow cells in Growth media(DMEM, supplemental with 2.0 mM L-Glutamine, 10% FBS) in suitable culture dishes until confluent at 37° C., 5% CO2. • 3. […] Grow cells at least one day at 37° C., 5% CO2. • 5. Wash cells with D-PBS 1×. • 6. Add 200 μl/well of starvation media (DMEM, 2.0 mM I-Glutamine, 0.1% FBS). Incubate overnight at 37° C., 5% CO2. • 7. Dilute Compounds/Extracts 1:20 in polypropylene 96 well plates using starvation media. Dilute dimethylsulfoxide 1:20 for use in control wells. • 8. Remove starvation media from 96 well cell culture plates and add 162 μl of fresh starvation media to each well. • 9. Add 18 μl of 1:20 diluted Compound/Extract dilution (from step 7) to each well plus the 1:20 dimethylsulfoxide dilution to the control wells (+/−VEGF), for a final dilution of 1:200 after cell stimulation. Final dimethylsulfoxide is 0.5%. […]

3T3/E/H+TGF-a(T) cells = assay: 3T3/E/H+TGF-a(T) cell growth SRB assay; format: cell-based; conditions: SRB readout
HUV-EC-C cells (a-FGF) = assay: HUV-EC-C assay, [3H] thymidine incorporation, a-FGF; format: cell-based, human; conditions: Mitogenesis in endothelial cells
Experimental: The following protocol may also be used to measure the composition's activity: • Day 0 • 1. […] After cells have detached from the flask, add an equal volume of assay medium and transfer to a 50 ml sterile centrifuge tube (Fisher Scientific; catalogue no. 05-539-6). • 2. Wash the cells with about 35 ml assay medium in the 50 ml sterile centrifuge tube by adding the assay medium, centrifuge for 10 minutes at approximately 200×g, aspirate the supernatant, and resuspend with 35 ml D-PBS. Repeat the wash two more times with D-PBS, resuspend the cells in about 1 ml assay medium/15 cm^2 of tissue culture flask. Assay medium consists of F12K medium (Gibco BRL; catalogue no. 21127-014)+0.5% heat-inactivated fetal bovine serum. Count the cells with a Coulter Counter.RTM.v Coulter Electronics, Inc.) and add assay medium to the cells to obtain a concentration of 0.8-1.0×10^5 cells/ml. • 3. Add cells to 96-well flat-bottom plates at 100 μl/well or 0.8-1.0×10^4 cells/well; incubate about 24 h at 37° C., 5% CO2. Day 1 • 1. Make up two-fold drug titrations in separate 96-well plates, generally 50 μM on down to 0 μM. Use the same assay medium as mentioned in day 0, step 2 above. Titrations are made by adding […] of drug at 200 μM (4× the final well concentration) to the top well of a particular plate column. Since the stock drug concentration is usually 20 mM in DMSO, the 200 μM drug concentration contains 2% DMSO. Therefore, diluent made up to 2% DMSO in assay medium (F12K+0.5% fetal bovine serum) is used as diluent for the drug titrations in order to dilute the drug but keep the DMSO concentration constant. Add this diluent to the remaining wells in the column at 60 μl/well. Take 60 μl from the 120 μl of 200 μM drug dilution in the top well of the column and mix with the 60 μl in the second well of the column. Take 60 μl from this well and mix with the 60 μl in the third well of the column, and so on until two-fold titrations are completed. When the next-to-the-last well is mixed, take 60 μl of the 120 μl in this well and discard it. Leave the last well with 60 μl of DMSO/media diluent as a non-drug-containing control. Make 9 columns of titrated drug, enough for triplicate wells each for 1) VEGF (obtained from Pepro Tech Inc., catalogue no. 100-200, 2) endothelial cell growth factor (ECGF) (also known as acidic fibroblast growth factor, or aFGF) (obtained from Boehringer Mannheim Biochemica, catalogue no. 1439 600), and assay media control. ECGF comes as a preparation with sodium heparin. • 2. Transfer 50 μl/well of the drug dilutions to the 96-well assay plates containing the 0.8-1.0×10^4 cells/100 μl/well of the HUV-EC-C cells from day 0 and […] incubate ~2 h at 37° C., 5% CO2. • 3. In triplicate, add 50 μl/well of 80 ng/ml VEGF, 20 ng/ml ECGF, or media control to each drug condition. As with the drugs, the growth factor concentrations are 4× the desired final concentration. Use the assay media from day 0 step 2 to make the concentrations of growth factors. Incubate approximately 24 hours at 37° C., 5% CO2. Each well will have 50 μl drug dilution, 50 μl growth factor or media, and 100 ul cells,=200 ul/well total. Thus the 4× concentrations of drugs and growth factors become 1× once everything has been added to the wells. Day 2 • 1. Add ^3H-thymidine (Amersham; catalogue no. TRK-686) at 1 μCi/well (10 μl/well of 100 μCi/ml solution made up in RPMI media+10% heat-inactivated fetal bovine serum) and incubate about 24 h at 37° C., 5% CO2. • Note: ^3H-thymidine is made up in RPMI media because all of the other applications for which we use the ^3H-thymidine involve experiments done in RPMI. The media difference at this step is probably not significant. RPMI was obtained from Gibco BRL, catalogue no. 11875-051. Day 3 • 1. Freeze plates overnight at −20° C. Day 4 • 1. […]

HUV-EC-C cells (VEGF) = assay: HUV-EC-C assay, [3H] thymidine incorporation, VEGF; format: cell-based, human; conditions: Mitogenesis in endothelial cells
Experimental: Repeat the wash two more times with D-PBS, resuspend the cells in about 1 ml assay medium/15 cm^2 of tissue culture flask. […] Add cells to 96-well flat-bottom plates at 100 μl/well or 0.8-1.0×10^4 cells/well; incubate about 24 h at 37° C., 5% CO2. Day 1 • 1. […] Use the same assay medium as mentioned in day 0, step 2 above. Titrations are made by adding 90 μl/well of drug at 200 μM (4× the final well concentration) to the top well of a particular plate column. Since the stock drug concentration is usually 20 mM in DMSO, the 200 μM drug concentration contains 2% DMSO. Therefore, diluent made up to 2% DMSO in assay medium (F12K+0.5% fetal bovine serum) is used as diluent for the drug titrations in order to dilute the drug but keep the DMSO concentration constant. Add this diluent to the remaining wells in the column at 60 μl/well. Take 60 μl from the 120 μl of 200 μM drug dilution in the top well of the column and mix with the 60 μl in the second well of the column. Take 60 μl from this well and mix with the 60 μl in the third well of the column, and so on until two-fold titrations are completed. When the next-to-the-last well is mixed, take 60 μl of the 120 μl in this well and discard it. Leave the last well with 60 μl of DMSO/media diluent as a non-drug-containing control. Make 9 columns of titrated drug, enough for triplicate wells each for 1) VEGF (obtained from Pepro Tech Inc., catalogue no. 100-200, 2) endothelial cell growth factor (ECGF) (also known as acidic fibroblast growth factor, or aFGF) (obtained from Boehringer Mannheim Biochemica, catalogue no. […] ECGF comes as a preparation with sodium heparin. • 2. Transfer 50 μl/well of the drug dilutions to the 96-well assay plates containing the 0.8-1.0×10^4 cells/100 μl/well of the HUV-EC-C cells from day 0 and 20 incubate ~2 h at 37° C., 5% CO2. • 3. In triplicate, add 50 μl/well of 80 ng/ml VEGF, 20 ng/ml ECGF, or media control to each drug condition. As with the drugs, the growth factor concentrations are 4× the desired final concentration. Use the assay media from day 0 step 2 to make the concentrations of growth factors. […] Day 2 • 1. […] Day 3 • 1.

3T3/PDGFR+PDGF(T) cells = assay: 3T3/PDGF-βR/PDGF-BB(T) cell growth SRB assay; format: cell-based; conditions: tumor-derived, SRB readout
Experimental: Cell Line and Growth Medium:
• 3T3/PDGF-βR/PDGF-BB(T) (NIH 3T3 clone 7 cells expressing PDGFβ-receptor and PDGF-BB, from tumors resected from athymic mice) 2% calf serum/DMEM+2 mM glutamine Protocol: Day 0: Cell Plating: • This part of assay is carried out in a laminar flow hood. • 1. Trypsinize cells as usual. Transfer 200 μl of cell suspension to 10 ml of isotone. Count cells on the Coulter Counter. • 2. Dilute cells in growth medium to 60,000 cells/ml. Transfer 100 μl of cells to each well in a 96-well flat bottom plate to give 6000 cells/well. • 3. Allow half of plate (4 rows) for each compound and quadruplicate wells for each compound concentration, a set of 4 wells for medium control and 4 wells for DMSO control. • 4. Gently shake plates to allow for uniform attachment of the cells to the plate. • 5. Incubate the plates at 37° C. in a 10% CO2 incubator. • Day 1: Addition of Compound: same as for Assay 1. • Day 5: Development of Assay: same as for Assay 1.
3T3/E/H+TGF-α(T): NIH 3T3 cells expressing EGFR/HER2 chimera and TGF-α, tumor-derived 3T3/EGFR+TGF-α(T): NIH 3T3 cells expressing EGFR and TGF-α, tumor-derived 3T3/PDGFR+PDGF(T): NIH 3T3 cells expressing PDGF-βR and PDGF-ββ, tumor-derived SMC: human smooth muscle cells from Clonetics

PDGFR [1] = molecular target: PDGFR (Homo sapiens, UniProt P09619); assay: PDGF-R ELISA
Experimental: All cell culture media, glutamine, and fetal bovine serum were purchased from Gibco Life Technologies (Grand Island, N.Y.) unless otherwise specified. […] All cell lines were routinely subcultured twice a week and were negative for mycoplasma as determined by the Mycotect method (Gibco).
For ELISA assays, cells (U1242, obtained from Joseph Schlessinger, NYU) were grown to 80-90% confluency in growth medium (MEM with 10% FBS, NEAA, 1 mM NaPyr and 2 mM GLN) and seeded in 96-well tissue culture plates in 0.5% serum at 25,000 to 30,000 cells per well. […] Lysates were incubated with shaking for 1 hour at room temperature. The plates were washed with TBST four times and then incubated with polyclonal anti-phosphotyrosine antibody at room temperature for 30 minutes. Excess anti-phosphotyrosine antibody was removed by rinsing the plate with TBST four times. Goat anti-rabbit IgG antibody was added to the ELISA plate for 30 min at room temperature followed by rinsing with TBST four more times. […] Absorbance at 410 nm with a reference wavelength of 630 nm was recorded about 15 to 30 min after ABTS addition.

FGFR = FGFR (Mus musculus, UniProt P16092); assay: FGF ligand BrdU incorporation in 3T3/EGFR cells; format: cell-based; conditions: Mitogenesis in 3T3/EGFR cells
PDGFR [2] = assay: PDGF-induced BrdU incorporation assay in 3T3/EGFR cells; format: cell-based; conditions: Mitogenesis in 3T3/EGFR cells, read-out: PDGFR PDGF Ligand IC50
Experimental: Protocol • (1) 3T3 engineered cell line: 3T3/EGFRc7. • (2) Cells are seeded at 8000 cells/well in DMEM, 10% CS, 2 mM Gin in a 96 well plate. […] The negative control wells receive serum free DMEM with 0.1% BSA only; the positive control cells receive the ligand (PDGF) but no test compound. […] FixDenat solution is added (50 μl/well) and the plates are incubated at room temperature for 45 minutes on a plate shaker. • (7) The FixDenat solution is thoroughly removed by decanting and tapping the inverted plate on a paper towel. Milk is added (5% dehydrated milk in PBS, 200 μl/well) as a blocking solution and the plate is incubated for 30 minutes at room temperature on a plate shaker. • (8) The blocking solution is removed by decanting and the wells are washed once with PBS. Anti-BrdU-POD solution (1:100 dilution in PBS, 1% BSA) is added (100 μl/well) and the plate is incubated for 90 minutes at room temperature on a plate shaker. • (9) The antibody conjugate is thoroughly removed by decanting and rinsing the wells 5 times with PBS, and the plate is dried by inverting and tapping on a paper towel. • (10) TMB substrate solution is added (100 μl/well) and incubated for 20 minutes at room temperature on a plate shaker until color development is sufficient for photometric detection. • (11) The absorbance of the samples is measured at 410 nm (in “dual wavelength” mode with a filter reading at 490 nm, as a reference wavelength) on a Dynatech ELISA plate reader.

Chain of FGFR (P16092 22-822, change not shown): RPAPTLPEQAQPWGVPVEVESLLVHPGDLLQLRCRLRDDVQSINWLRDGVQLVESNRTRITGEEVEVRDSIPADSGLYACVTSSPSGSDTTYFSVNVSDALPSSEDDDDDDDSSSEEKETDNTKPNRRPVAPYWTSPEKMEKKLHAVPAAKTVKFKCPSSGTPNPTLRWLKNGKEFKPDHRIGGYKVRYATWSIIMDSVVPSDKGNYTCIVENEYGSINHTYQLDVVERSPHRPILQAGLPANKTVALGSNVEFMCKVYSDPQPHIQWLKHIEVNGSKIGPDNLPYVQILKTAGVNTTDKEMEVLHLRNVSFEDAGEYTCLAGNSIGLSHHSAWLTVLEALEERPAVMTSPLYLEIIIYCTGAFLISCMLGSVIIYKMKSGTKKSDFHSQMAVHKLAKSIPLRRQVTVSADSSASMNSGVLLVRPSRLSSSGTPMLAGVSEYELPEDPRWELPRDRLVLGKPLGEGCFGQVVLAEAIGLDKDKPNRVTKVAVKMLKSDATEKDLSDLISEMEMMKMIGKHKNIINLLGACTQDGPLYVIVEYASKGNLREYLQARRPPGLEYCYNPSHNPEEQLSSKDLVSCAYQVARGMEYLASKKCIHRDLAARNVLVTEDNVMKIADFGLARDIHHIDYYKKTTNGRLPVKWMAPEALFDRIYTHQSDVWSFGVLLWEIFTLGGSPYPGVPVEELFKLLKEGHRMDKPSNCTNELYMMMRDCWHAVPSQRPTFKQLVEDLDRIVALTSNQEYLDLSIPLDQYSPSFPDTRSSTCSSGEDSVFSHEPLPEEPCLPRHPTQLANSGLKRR
Chain of PDGFR (Homo sapiens, UniProt P09619) (P09619 33-1106): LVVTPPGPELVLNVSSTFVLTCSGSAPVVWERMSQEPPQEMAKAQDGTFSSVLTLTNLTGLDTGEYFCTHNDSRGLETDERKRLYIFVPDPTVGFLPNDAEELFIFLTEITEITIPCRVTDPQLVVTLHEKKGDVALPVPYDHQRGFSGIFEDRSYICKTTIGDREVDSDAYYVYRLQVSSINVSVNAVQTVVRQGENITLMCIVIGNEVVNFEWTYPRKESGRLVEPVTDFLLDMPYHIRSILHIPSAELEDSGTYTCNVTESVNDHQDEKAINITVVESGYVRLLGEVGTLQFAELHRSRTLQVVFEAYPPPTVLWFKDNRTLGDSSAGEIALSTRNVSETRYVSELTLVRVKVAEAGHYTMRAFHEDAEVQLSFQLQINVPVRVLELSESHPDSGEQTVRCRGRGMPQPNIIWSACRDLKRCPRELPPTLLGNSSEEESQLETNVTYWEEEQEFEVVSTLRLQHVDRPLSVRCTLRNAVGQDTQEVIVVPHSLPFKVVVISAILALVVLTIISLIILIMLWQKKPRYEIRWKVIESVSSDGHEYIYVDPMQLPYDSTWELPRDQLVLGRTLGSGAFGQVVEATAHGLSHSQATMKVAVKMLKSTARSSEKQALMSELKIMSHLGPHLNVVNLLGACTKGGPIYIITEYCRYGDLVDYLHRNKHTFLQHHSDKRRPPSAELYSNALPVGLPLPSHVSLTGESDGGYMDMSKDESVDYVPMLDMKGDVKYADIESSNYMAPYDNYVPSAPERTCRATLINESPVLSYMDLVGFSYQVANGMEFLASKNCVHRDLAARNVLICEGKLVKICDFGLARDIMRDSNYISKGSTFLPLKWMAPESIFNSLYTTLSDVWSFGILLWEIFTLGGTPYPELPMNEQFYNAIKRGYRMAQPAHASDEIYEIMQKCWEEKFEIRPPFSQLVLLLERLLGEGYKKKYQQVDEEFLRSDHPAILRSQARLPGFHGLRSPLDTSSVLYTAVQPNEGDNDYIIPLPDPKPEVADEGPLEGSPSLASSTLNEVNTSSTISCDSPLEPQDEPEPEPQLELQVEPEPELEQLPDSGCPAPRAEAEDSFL
T1 sequence (P35918 20-1345): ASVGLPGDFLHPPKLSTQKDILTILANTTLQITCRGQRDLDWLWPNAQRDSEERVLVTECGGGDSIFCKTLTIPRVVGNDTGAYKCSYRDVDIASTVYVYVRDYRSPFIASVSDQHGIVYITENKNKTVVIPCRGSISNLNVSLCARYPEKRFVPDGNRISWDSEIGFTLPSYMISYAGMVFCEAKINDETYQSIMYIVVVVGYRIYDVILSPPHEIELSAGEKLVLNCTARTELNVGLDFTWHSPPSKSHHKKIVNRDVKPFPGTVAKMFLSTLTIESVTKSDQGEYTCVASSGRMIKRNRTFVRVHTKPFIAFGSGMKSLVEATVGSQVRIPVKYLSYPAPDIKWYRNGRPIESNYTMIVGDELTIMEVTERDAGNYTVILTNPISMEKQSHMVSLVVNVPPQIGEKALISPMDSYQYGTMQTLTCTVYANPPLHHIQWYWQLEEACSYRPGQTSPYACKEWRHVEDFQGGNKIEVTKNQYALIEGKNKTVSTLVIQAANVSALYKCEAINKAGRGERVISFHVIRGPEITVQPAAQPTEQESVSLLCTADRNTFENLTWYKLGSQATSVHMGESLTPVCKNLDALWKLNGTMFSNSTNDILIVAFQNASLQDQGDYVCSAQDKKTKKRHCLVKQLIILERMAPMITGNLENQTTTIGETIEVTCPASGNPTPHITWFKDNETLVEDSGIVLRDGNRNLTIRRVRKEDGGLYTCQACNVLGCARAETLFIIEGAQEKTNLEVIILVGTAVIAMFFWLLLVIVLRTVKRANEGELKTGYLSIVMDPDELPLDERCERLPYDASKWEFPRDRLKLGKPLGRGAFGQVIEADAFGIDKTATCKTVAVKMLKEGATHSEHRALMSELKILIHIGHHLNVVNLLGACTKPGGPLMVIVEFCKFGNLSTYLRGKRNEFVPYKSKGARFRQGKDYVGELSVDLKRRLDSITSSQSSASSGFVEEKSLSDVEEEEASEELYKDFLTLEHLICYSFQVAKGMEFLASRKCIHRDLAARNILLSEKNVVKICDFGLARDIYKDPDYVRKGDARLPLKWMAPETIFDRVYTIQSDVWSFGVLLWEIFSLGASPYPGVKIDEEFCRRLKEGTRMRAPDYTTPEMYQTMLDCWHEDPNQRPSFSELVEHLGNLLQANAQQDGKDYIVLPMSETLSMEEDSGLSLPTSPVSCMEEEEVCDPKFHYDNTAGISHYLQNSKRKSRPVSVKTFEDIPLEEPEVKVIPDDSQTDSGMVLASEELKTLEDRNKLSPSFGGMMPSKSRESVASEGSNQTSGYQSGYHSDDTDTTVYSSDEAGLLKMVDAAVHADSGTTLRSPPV

Row | Compound | IC50 (HUV-EC-C cells (a-FGF)) [µM] | IC50 (HUV-EC-C cells (VEGF)) [µM] | IC50 (PDGFR [1]) [µM] | also measured
1 | 3-[(2-Sulphonylfuran-5-yl)methylene]-2-indolinone sodium salt [SU5428] |  |  |  | IC50 (FLK-1 receptor): 8.6 µM
2 | CN(C)c1ccc(C=C2C(=O)Nc3ccccc32)cc1 [SU4312, 3-(4-Dimethylaminobenzylidenyl)-2-indolinone] |  |  |  | IC50 (3T3/E/H+TGF-a(T) cells): 36 µM
3 | COc1ccc(OC)c(C=C2C(=O)Nc3ccccc32)c1 [SU4793, 3-(2,5-Dimethoxybenzylidenyl)-2-indolinone] | 3.4 | 6.6 |  | 
4 | COc1cccc(C=C2C(=O)Nc3ccccc32)c1OC [SU4794, 3-(2,3-dimethoxybenzylidenyl)-2-indolinone] | 35.7 | 4.8 |  | 
5 | CC(=O)Nc1ccc(C=C2C(=O)Nc3ccccc32)cc1 [SU4799, 3-(4-acetamidobenzylidenyl)-2-indolinone] |  | 19.9 |  | 
6 | O=C1Nc2ccccc2C1=Cc1ccc(O)cc1Cl [SU4932, 3-(2-chloro-4-hydroxybenzylidenyl)-2-indolinone] | 45.2 | 2.5 |  | 
7 | CN(C)c1ccc(C=C2C(=O)N(C)c3ccccc32)cc1 [SU4952, 3-(4-Dimethylaminobenzylidenyl)-1-methyl-2-indolinone] | 19.3 | 25.6 |  | 
8 | CN1C(=O)C(=Cc2ccc(Br)cc2)c2ccccc21 [SU4956, 3-(4-Bromobenzylidenyl)-1-methyl-2-indolinone] | 13 | 8 |  | 
9 | CN1C(=O)C(=Cc2ccc(N3CCOCC3)cc2)c2ccccc21 [SU4982, 1-Methyl-3-[4-(morpholin-4-yl)benzylidenyl]-2-indolinone] | 27.3 | 46.1 |  | 
10 | O=CN1CCN(c2ccc(C=C3C(=O)Nc4ccccc43)cc2)CC1 [SU4984, 3-[4-(4-Formylpiperazin-1-yl)benzylidenyl]-2-indolinone] |  |  | 5.8 | IC50 (3T3/PDGFR+PDGF(T) cells): 22.2 µM
11 | Cc1cc[nH]c1C=C1C(=O)Nc2ccccc21 [SU5404, 3-[(3-Methylpyrrol-2-yl)methylene]-2-indolinone] |  |  | 17 | IC50 (FGFR): 25 µM; IC50 (PDGFR [2]): 3 µM
12 | O=C1Nc2ccccc2C1=Cc1ccc(N2CCCC2)cc1 [SU5466, 3-[4-(Pyrrolidin-1-yl)benzylidenyl]-2-indolinone] |  |  | 86 | IC50 (FGFR): 15 µM; IC50 (PDGFR [2]): 18 µM
13 | O=C1Nc2ccccc2C1=Cc1c[nH]cn1 [SU5473, 3-[(Imidazol-4-yl)methylene]-2-indolinone] |  |  | 14.2 | IC50 (HUV-EC-C cells (a-FGF); Homo sapiens, HUVEC): 14.1 µM; IC50 (HUV-EC-C cells (VEGF); Homo sapiens, HUVEC): 1.2 µM; IC50 (FGFR): 50 µM; IC50 (PDGFR [2]): 4 µM
